Assays:
Type in all cases: cell-based, human
SN12C = experiment: NCI60 antitumor screening; details: Homo sapiens; 10 μM single dose; SN12C (renal cancer); read-out: growth inhibition percent (GI%)
RXF 393 = experiment: NCI60 antitumor screening; details: for inhibition at 10 µM: Homo sapiens, 10 μM single dose, RXF 393 (renal cancer), read-out: growth inhibition percent (GI%)
HCT-15 = experiment: NCI60 antitumor screening; details: Homo sapiens; 10 μM single dose; HCT-15 (colon cancer); read-out: growth inhibition percent (GI%)
EKVX = experiment: NCI60 antitumor screening; details: Homo sapiens; 10 μM single dose; EKVX (non-small cell lung cancer); read-out: growth inhibition percent (GI%)
RPMI-8226 = experiment: NCI60 antitumor screening; details: Homo sapiens; 10 μM single dose; RPMI-8226 (leukaemia); read-out: growth inhibition percent (GI%)
MCF7 = experiment: NCI60 antitumor screening; details: Homo sapiens; 10 μM single dose; MCF7 (breast cancer); read-out: growth inhibition percent (GI%)
SK-OV-3 = experiment: NCI60 antitumor screening; details: Homo sapiens; 10 μM single dose; SK-OV-3 (ovarian cancer); read-out: growth inhibition percent (GI%)
UACC-62 = experiment: NCI60 antitumor screening; details: Homo sapiens; 10 μM single dose; UACC-62 (melanoma); read-out: growth inhibition percent (GI%)
OVCAR-8 = experiment: NCI60 antitumor screening; details: Homo sapiens; 10 μM single dose; OVCAR-8 (ovarian cancer); read-out: growth inhibition percent (GI%)
COLO 205 = experiment: NCI60 antitumor screening; details: Homo sapiens; 10 μM single dose; COLO 205 (colon cancer); read-out: growth inhibition percent (GI%)
KM12 = experiment: NCI60 antitumor screening; details: Homo sapiens; 10 μM single dose; KM12 (colon cancer); read-out: growth inhibition percent (GI%)
IGROV1 = experiment: NCI60 antitumor screening; details: Homo sapiens, IGROV-1; 10 μM single dose; IGROV1 (ovarian cancer); read-out: growth inhibition percent (GI%)
SNB-19 = experiment: NCI60 antitumor screening; details: Homo sapiens; 10 μM single dose; SNB-19 (CNS cancer); read-out: growth inhibition percent (GI%)
NCI-H226 = experiment: NCI60 antitumor screening; details: for inhibition at 10 µM: Homo sapiens, 10 μM single dose, NCI-H226 (non-small cell lung cancer), read-out: growth inhibition percent (GI%)
HCC-2998 = experiment: NCI60 antitumor screening; details: Homo sapiens; 10 μM single dose; HCC-2998 (colon cancer); read-out: growth inhibition percent (GI%)
NCI60 cell lines panel = experiment: NCI60 antitumor screening, full panel; details: for inhibition at 10 µM: Homo sapiens, 10 μM single dose, mean over NCI60 cell lines, read-out: Mean growth inhibition percent (GI%)
Summary of the method: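 Percent growth inhibition (GI%) was recorded for each of the NCI60 lines, spanning leukaemia, lung, colon, CNS, melanoma, ovarian, renal, prostate and breast cancers, after exposure to compounds at one concentration, 10 μM.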

TK-10 = experiment: NCI60 antitumor screening; details: Homo sapiens; 10 μM single dose; TK-10 (renal cancer); read-out: growth inhibition percent (GI%)
HOP-92 = experiment: NCI60 antitumor screening; details: Homo sapiens; 10 μM single dose; HOP-92 (non-small cell lung cancer); read-out: growth inhibition percent (GI%)
SK-MEL-2 = experiment: NCI60 antitumor screening; details: Homo sapiens; 10 μM single dose; SK-MEL-2 (melanoma); read-out: growth inhibition percent (GI%)
CAKI-1 = experiment: NCI60 antitumor screening; details: Homo sapiens; 10 μM single dose; CAKI-1 (renal cancer); read-out: growth inhibition percent (GI%)
HS 578T = experiment: NCI60 antitumor screening; details: for inhibition at 10 µM: Homo sapiens, 10 μM single dose, HS 578T (breast cancer), read-out: growth inhibition percent (GI%)
T-47D = experiment: NCI60 antitumor screening; details: Homo sapiens, T47D; 10 μM single dose; T-47D (breast cancer); read-out: growth inhibition percent (GI%)
MALME-3M = experiment: NCI60 antitumor screening; details: Homo sapiens; 10 μM single dose; MALME-3M (melanoma); read-out: growth inhibition percent (GI%)
HOP-62 = experiment: NCI60 antitumor screening; details: for inhibition at 10 µM: Homo sapiens, 10 μM single dose, HOP-62 (non-small cell lung cancer), read-out: growth inhibition percent (GI%)
NCI-H322M = experiment: NCI60 antitumor screening; details: Homo sapiens; 10 μM single dose; NCI-H322M (non-small cell lung cancer); read-out: growth inhibition percent (GI%)
SW-620 = experiment: NCI60 antitumor screening; details: Homo sapiens; 10 μM single dose; SW-620 (colon cancer); read-out: growth inhibition percent (GI%)
OVCAR-5 = experiment: NCI60 antitumor screening; details: Homo sapiens; 10 μM single dose; OVCAR-5 (ovarian cancer); read-out: growth inhibition percent (GI%)
SNB-75 = experiment: NCI60 antitumor screening; details: for inhibition at 10 µM: Homo sapiens, 10 μM single dose, SNB-75 (CNS cancer), read-out: growth inhibition percent (GI%)
DU-145 = experiment: NCI60 antitumor screening; details: Homo sapiens, DU-145; read-out: growth inhibition percent (GI%)
ACHN = experiment: NCI60 antitumor screening; details: Homo sapiens; 10 μM single dose; ACHN (renal cancer); read-out: growth inhibition percent (GI%)
UO-31 = experiment: NCI60 antitumor screening; details: Homo sapiens; 10 μM single dose; UO-31 (renal cancer); read-out: growth inhibition percent (GI%)
UACC-257 = experiment: NCI60 antitumor screening; details: Homo sapiens; 10 μM single dose; UACC-257 (melanoma); read-out: growth inhibition percent (GI%)
NCI-H23 = experiment: NCI60 antitumor screening; details: Homo sapiens; 10 μM single dose; NCI-H23 (non-small cell lung cancer); read-out: growth inhibition percent (GI%)
NCI-H522 = experiment: NCI60 antitumor screening; details: Homo sapiens; 10 μM single dose; NCI-H522 (non-small cell lung cancer); read-out: growth inhibition percent (GI%)

SMILES | inhibition at 10 µM (SN12C) | inhibition at 10 µM (RXF 393) | inhibition at 10 µM (HCT-15) | inhibition at 10 µM (EKVX) | inhibition at 10 µM (RPMI-8226) | inhibition at 10 µM (MCF7) | inhibition at 10 µM (SK-OV-3) | inhibition at 10 µM (UACC-62) | inhibition at 10 µM (OVCAR-8) | inhibition at 10 µM (COLO 205) | inhibition at 10 µM (KM12) | inhibition at 10 µM (IGROV1) | inhibition at 10 µM (SNB-19) | inhibition at 10 µM (NCI-H226) | inhibition at 10 µM (HCC-2998) | inhibition at 10 µM (NCI60 cell lines panel) | inhibition at 10 µM (TK-10) | inhibition at 10 µM (HOP-92) | inhibition at 10 µM (SK-MEL-2) | inhibition at 10 µM (CAKI-1) | other results
Cc1ccc(CSc2nc(-c3ccc(F)cc3)c(C#N)c(N3CCN(c4ccccc4)CC3)n2)cc1 [4p, 4-(4-Fluorophenyl)-2-((4-methylbenzyl)thio)-6-(4-phenylpiperazin-1-yl) pyrimidine-5-carbonitrile] | < 10% | < 10% | 13.9% | 20.3% | 18.4% | 21.3% | < 10% | 29.7% | < 10% | 12.2% | < 10% | < 10% | < 10% | < 10% | < 10% | < 10% | < 10% | < 10% | 15.1% | 16.6% | inhibition at 10 µM (HS 578T): < 10%; inhibition at 10 µM (T-47D): 12.3%; inhibition at 10 µM (MALME-3M): < 10%; inhibition at 10 µM (HOP-62): < 10%; inhibition at 10 µM (NCI-H322M): < 10%; inhibition at 10 µM (SW-620): < 10%; inhibition at 10 µM (OVCAR-5): < 10%; inhibition at 10 µM (SNB-75): 14.8%; inhibition at 10 µM (DU-145): < 10%; inhibition at 10 µM (ACHN): < 10%; inhibition at 10 µM (UO-31): < 10%; inhibition at 10 µM (UACC-257): 14.1%; inhibition at 10 µM (NCI-H23): < 10%; inhibition at 10 µM (NCI-H522): 13.8%
CN1CCN(c2nc(SCc3ccc(F)cc3)nc(-c3ccc(F)cc3)c2C#N)CC1 [4j, 2-((4-Fluorobenzyl)thio)-4-(4-fluorophenyl)-6-(4-methylpiperazin-1-yl)pyrimidine-5-carbonitrile] | 20.5% | 80.6% | < 10% | 18.4% | 15% | 14.8% | 55.5% | 22.5% | 32% | < 10% | < 10% | 16.9% | 40.3% | 37.8% | < 10% | 25.1% | 15% | 66.2% | < 10% | 57.5% | GI% (RXF 393; 10 μM one-dose, Table 1): 80.61%; GI% (NCI-H226; 10 μM one-dose, Table 1): — (GI value > 70%); GI% (HS 578T; 10 μM one-dose, Table 1): — (GI value > 70%); inhibition at 10 µM (HS 578T): 60.4%; inhibition at 10 µM (T-47D): 18.3%; inhibition at 10 µM (MALME-3M): 39.5%; GI% (HOP-62; 10 μM one-dose, Table 1): — (GI value > 70%); inhibition at 10 µM (HOP-62): 64.4%; inhibition at 10 µM (NCI-H322M): 24.6%; inhibition at 10 µM (SW-620): < 10%; inhibition at 10 µM (OVCAR-5): 17.4%; GI% (SNB-75; 10 μM one-dose, Table 1): 74.91%; inhibition at 10 µM (SNB-75): 74.9%; inhibition at 10 µM (DU-145): < 10%; inhibition at 10 µM (ACHN): 39.1%; inhibition at 10 µM (UO-31): 30.1%; inhibition at 10 µM (UACC-257): < 10%; inhibition at 10 µM (NCI-H23): 22.2%; inhibition at 10 µM (NCI-H522): 23.6%
CN1CCN(c2nc(SCc3ccc([N+](=O)[O-])cc3)nc(-c3ccc(F)cc3)c2C#N)CC1 [4k, 4-(4-Fluorophenyl)-6-(4-methylpiperazin-1-yl)-2-((4-nitrobenzyl)thio)pyrimidine-5-carbonitrile] | 15.8% | 68.5% | 15.7% | 22.4% | 17.8% | 17.6% | 20.9% | 19.8% | 11.7% | < 10% | < 10% | < 10% | 29.6% | < 10% | < 10% | 17.5% | < 10% | 47% | < 10% | 34.8% | One-dose activity over the NCI60 panel (NCI60 cell lines panel; 10 μM): moderate activity against numerous cell lines; inhibition at 10 µM (HS 578T): 42.6%; inhibition at 10 µM (T-47D): 28.6%; inhibition at 10 µM (MALME-3M): 27.2%; inhibition at 10 µM (HOP-62): 26.3%; inhibition at 10 µM (NCI-H322M): 26.3%; inhibition at 10 µM (SW-620): < 10%; inhibition at 10 µM (OVCAR-5): 16.8%; inhibition at 10 µM (SNB-75): 25.7%; inhibition at 10 µM (DU-145): < 10%; inhibition at 10 µM (ACHN): 31.5%; inhibition at 10 µM (UO-31): 40%; inhibition at 10 µM (UACC-257): < 10%; inhibition at 10 µM (NCI-H23): 19.7%; inhibition at 10 µM (NCI-H522): 21.3%

Reference: PMC10620772, “Design, synthesis, and biological evaluation of new pyrimidine-5-carbonitrile derivatives as novel anti-cancer, dual EGFR^WT/COX-2 inhibitors with docking studies” (RSC Advances, 2023)
